# In patent US8790665B2, “Serum protein-based detection of random sequence polymer compositions” (Ares Trading SA, priority 2009, dated 2014):
# Entries after “also recorded” stand apart in the source; their conditions may differ.
# What was measured:
# [1] = administered at the same initial weight-by-volume concentration; cited from earlier work
# serum proteins = assay: Identification of serum proteins bound to PI-2301 or Cop-1 (ELISA / CNBr-Sepharose capture, LC-MS/MS); assay type: binding, human; details: for serum proteins identified as bound: LC-MS/MS of tryptic digest, samples from Example 1 or 2; for binding to the serum proteins listed in Table C: normal human serum, direct ELISA
# From the text: As a non-limiting example of the above described identification, PI-2301 or Cop-1 may be used in a direct ELISA assay (see Materials and Methods) to identify serum proteins that bind to the RSP composition comprising YFAK or YEAK peptides. […] It has been observed that YEAK and YFAK peptides have different binding specificities; conversely, serum proteins can be said to bind YEAK and YFAK peptides with different specificities. Tables D and E list serum proteins which associate with HDL and LDL, respectively. Any serum proteins may bind to the RSP composition described herein by varying affinities and selectivities.
# An uncoated ELISA plate was blocked with PBS/0.1% Tween 20 for 2 hours at room temperature. PI-2301 or Cop-1 samples were serially diluted in PBS/5% normal human serum and added to the blocked and washed wells of the ELISA plate. The PI-2301 or Cop-1 in normal human serum was bound to the plate and unbound PI-2301 or Cop-1 was removed by washing the plate with PBS/0.05% Tween 20. Protein-A-purified anti-rabbit anti-PI-2301 or anti-rabbit anti-Cop-1, diluted to a suitable concentration based on the titer, was added for 1 hr at RT. After another wash step to remove the unbound rabbit anti-2301 or rabbit anti-Cop-1 antibodies, a secondary antibody, a goat anti-rabbit IgG-HRP (horse radish peroxidase conjugated antibody to rabbit IgG) was added to the well. After washing away any unbound secondary antibody, substrate for HRP was added to the wells and incubated for 15 minutes, which yielded a blue color that turns yellow when stop solution is added, the intensity of which color correlates with the amount of total PI-2301 or Cop-1 in the well. The optical density was measured at 450 nm with a ELISA plate reader and a titer curve was generated for each set of the serum samples spiked with PI-2301 and Cop-1, respectively. The limit of serum PI-2301 or serum Cop-1 detection is defined as the concentration which results in a A450 nm absorption which is 3 times above background. […]
# Immobilized RSP compositions were prepared by reacting the peptides with CNBr-activated Sepharose®, a pre-activated large pore chromatography medium used for immobilizing ligands (proteins, peptides, nucleic acids) containing primary amines using the cyanogens bromide method. […] After pH neutralization, the absorbance at 280 nm of the eluted fractions was read to identify fractions containing the ligands. […]
# Samples containing PI-2301 binding proteins or Cop-1 binding proteins were obtained by the method of Example 1 or Example 2. These samples were then enzymatically digested and analyzed by liquid chromatography tandem mass spectrometry (LC-MS/MS) for the purpose of identify the proteins which bind PI-2301 or Cop-1. […]
# [2] = several hours after subcutaneous administration; various species, including man; cited from earlier work
# [3] = test system: preclinical models of multiple sclerosis and Crohn's disease; assay: Efficacy in preclinical models of multiple sclerosis and Crohn's disease; assay type: in vivo
# From the text: Without wishing to be bound by theory, mechanistically, binding of peptides within RSP compositions, (e.g. PI-2301 and Cop-1) to the serum proteins such as lipoproteins found associated with HDL and LDL might facilitate their capture by monocytes through receptors such as SR-BI or ABCA1. This binding may induce activation of monocytes and their differentiation into anti-inflammatory cells. PI-2301 and Cop-1 differ in binding to serum proteins (see FIG. 3). One reason for the difference is that Cop-1 and generic variants of glatiramer acetates are made by solution phase peptide synthesis, thus significant variations in composition may be observed from lot to lot. In contrast, PI-2301 is manufactured by solid phase synthesis. […] Thus, the great majority of the PI-2301 52-mer peptides in the mixture is likely to be functional. Cop-1 has a much broader molecular weight distribution, making it likely that some species of the mixture, such as small peptide species, in the mixture are ineffective.
# [4] = Serum concentration / exposure of PI-2301 compared with Cop-1; details: in vivo
# From the text: Certain RSP compositions persist much longer in the serum and other biological fluids than other mixtures. For example, a preparation of YFAK, PI-2301, is found at 10 times the serum concentration in comparison to Cop-1 administered at the same initial weight-by-volume concentration (US App. Pub. 2009-0275496). In some instances, the administered peptides are sequestered by or bound to some in vivo component in situ, the result of which is longer half-life in that environment, with or without enhancement in bioavailability. In certain embodiment, the environment is blood plasma or lymph. In an alternative embodiment, the environment is spinal or cerebral fluid. In yet other embodiments, the environment is any tissue or organ locale to which peptides from RSP compositions are delivered.
# Without wishing to be bound by theory, mechanistically, binding of peptides within RSP compositions, (e.g. PI-2301 and Cop-1) to the serum proteins such as lipoproteins found associated with HDL and LDL might facilitate their capture by monocytes through receptors such as SR-BI or ABCA1. This binding may induce activation of monocytes and their differentiation into anti-inflammatory cells. PI-2301 and Cop-1 differ in binding to serum proteins (see FIG. 3). […]
# [5] = YEAK in the serum of mice dosed IV or SC, detected by anti-YEAK ELISA; assay type: in vivo; details: FIG. 4
# RAW264.7 = assay: Bioassay: CCL22 release by monocyte cell line RAW264.7; assay type: cell-based; details: RAW264.7 cells exposed to copolymer; FIGS. 10, 15
# Method: Following synthesis of RSP compositions of different lengths, for example by solid phase synthesis or by solution phase synthesis, the individual lots or batches made by the same manufacturing process, and individual batches of mixtures manufactured by different processes are tested and compared for variation using bioassays such as the release of CCL22 by the monocyte cell line RAW264.7, by ex vivo proliferation assays, and by measuring the binding of serum proteins to peptides in the RSP composition, it is possible to determine subsets of peptides or even individual peptides that are present in any given process or lot. Processes and lots of RSP compositions will be compared to determine whether the same subsets of peptides and/or types of peptides are consistently represented across the different processes and lots.
# CCL22 = assay: Acute release of CCL22 (MDC) in serum or plasma after YEAK administration in mice; assay type: in vivo; details: FIG. 5
# HLA-DR1 (DRB1*0101) = HLA-DR1 (DRB1*0101) (Homo sapiens, UniProt P01903+P01911, A100R/D57E/F55L/F60I/F76Y/I96L/L162R/M171V/P40L/Q125E/R42F/V115G/Y59C); details: peptide-specific manner; cited from earlier work
# [6] = test system: Ig fraction of rabbit polyserum; assay: ELISA with Ig fraction of rabbit polyserum; assay type: binding; details: FIG. 13
# HLA-DR2 (DRB1*1501) = HLA-DR2 (DRB1*1501) (Homo sapiens, UniProt P01903+P01911); details: peptide-specific manner; cited from earlier work
# HLA-DR4 (DRB1*0401) = HLA-DR4 (DRB1*0401) (Homo sapiens, UniProt P01903+P01911, A100K/A169T/F76Y/I96L/K127E/L162R/M171V/N62H/P40V/Q125Y/R42H/S133A/S149N/S66Y/V115G/V209L/W38E); details: peptide-specific manner; cited from earlier work
substance,measurement,setting,value
plovamer [PI-2301],serum concentration in comparison to Cop-1,[1],10 times
same,serum proteins identified as bound,serum proteins,several lipoproteins from the HDL and LDL complexes
same,binding to the serum proteins listed in Table C,serum proteins,experimentally shown to bind
same,detection in serum,[2],can be detected
same,efficacy (potency) compared with Cop-1,[3],more potent than Cop-1
same,serum exposure compared with Cop-1,[4],greater serum exposure
glatiramer acetate [Cop-1],maximum serum concentration,"[5]; mice dosed IV with 4 mg/kg or SC with 21 mg/kg, route for this value not stated",1800 ng/mL
same,time of maximum serum concentration,"[5]; post dosing, mice IV 4 mg/kg or SC 21 mg/kg",around 15 min
same,serum proteins identified as bound,serum proteins,several lipoproteins from the HDL and LDL complexes; also recorded: complement proteins such as C3 and C4A
same,binding to the serum proteins listed in Table C,serum proteins,experimentally shown to bind
same,CCL22 release,RAW264.7,released CCL22 in a concentration dependent manner
same,relation between SC dose and observed maximum CCL22 plasma concentration,CCL22,linear correlation
same,detection in serum,[2],can be detected
same,binding affinity to purified HLA-DR1 (DRB1*0101),HLA-DR1 (DRB1*0101),binds with high affinity
same,recognition by Ig fraction of rabbit polyserum,[6],interacts strongly
same,binding affinity to purified HLA-DR2 (DRB1*1501),HLA-DR2 (DRB1*1501),binds with high affinity
same,binding affinity to purified HLA-DR4 (DRB1*0401),HLA-DR4 (DRB1*0401),binds with high affinity
